System: m2 receptor
Test: Expression of m2 receptors on CHO cells transfected with DNA for the m2 receptor (tritiated QNB binding)
Assay type: cell-based
Parameters: key: Active: “active” means increase over the control; Inactive: “inactive” means same effect as control
Details: DMSO control, range of final concentrations
Description: Substituted sapogenins of the present invention have also been tested for activity in a number of in-vitro assays. The assays/experiments that were considered of key importance in determining possible activity in the elevation of membrane bound receptor numbers were as follows: • Chinese hamster ovary (CHO) cells transfected with the a DNA fragment coding for a muscarinic receptor. The cell line used for the majority of the experiments was a cell line expressing the m2 receptor. The methods and the results of these experiments are now described in turn.
The effects of various compounds on the expression of m2 receptors on CHO cells transfected with DNA for the m2 receptor were investigated. Receptor numbers were assayed using tritiated QNB binding and subtracting non-specific binding. Compounds were dissolved in DMSO and DMSO was used as a control. Compounds were tested at a range of final concentrations. Compounds were also tested in the presence and absence of tamoxifen to try to distinguish an oestrogen receptor mediated mechanism The results are summarised in the Table I below.

CC1CCC2(OC1)OC1CC3C4CCC5CC(N=[N+]=[N-])CCC5(C)C4CCC3(C)C1C2C (stereo not drawn) [3α-azido-5β,20α,22α,25R-spirostane]
Effect on receptor expression: Active

C[C@@H]1CC[C@@]2(OC1)O[C@H]1C[C@H]3[C@@H]4CC[C@@H]5C[C@H](N)CC[C@]5(C)[C@H]4CC[C@]3(C)[C@H]1[C@@H]2C [3α-amino-5β,20α,22α,25R-spirostane]
Effect on receptor expression: Active

C[C@H]1[C@H]2[C@H](C[C@H]3[C@@H]4CC[C@@H]5C[C@@H](O)CC[C@]5(C)[C@H]4CC[C@]23C)O[C@]12CCC(C)(C)CO2 [25-methyl-5β,20α,22α-spirostane-3β-ol]
Effect on receptor expression: Active

C[C@@H]1CC[C@@]2(OC1)O[C@H]1C[C@H]3[C@@H]4CC[C@H]5C[C@H](F)CC[C@]5(C)[C@H]4CC[C@]3(C)[C@H]1[C@@H]2C [3α-fluoro-5α,20α,22α,25R-spirostane]
Effect on receptor expression: Inactive

C[C@@H]1CC[C@@]2(OC1)O[C@H]1C[C@H]3[C@@H]4CC[C@@H]5CC(F)(F)CC[C@]5(C)[C@H]4CC[C@]3(C)[C@H]1[C@@H]2C [3,3-difluoro-5β,20α,22α,25R-spirostane]
Effect on receptor expression: Active

C[C@@H]1CC[C@@]2(OC1)O[C@H]1C[C@H]3[C@@H]4CC[C@@H]5C[C@H](NS(C)(=O)=O)CC[C@]5(C)[C@H]4CC[C@]3(C)[C@H]1[C@@H]2C [3α-methylsulphonylamino-5β,20α,22α,25R-spirostane]
Effect on receptor expression: Active

C[C@@H]1CC[C@@]2(OC1)O[C@H]1C[C@H]3[C@@H]4CC[C@@H]5C[C@@H](F)CC[C@]5(C)[C@H]4CC[C@]3(C)[C@H]1[C@@H]2C [3β-fluoro-5β,20α,22α,25R-spirostane]
Effect on receptor expression: Active

From US20100087411A1, “SUBSTITUTED SAPOGENINS AND THEIR USE” (Phytopharm PLC, priority 2000, published 2010)
